These results are taken from ChEMBL document CHEMBL1201862, “PubChem BioAssay data set” (2004).

Experiment in all cases: NCI tumour cell line growth inhibition, 48 h
Assay [1] concerns 786-0.
Assay [2] relates to ACHN.
Assay [3] concerns CCRF-CEM.
Assay [4] has as its system HCT-116.
Assay [5] relates to HOP-92.
The test system of assay [6] is K562.
The subject of assay [7] is MOLT-4.
The test system of assay [8] is Malme-3M.
For assay [9], the system named is NCI-H23.
The test system of assay [10] is NCI-H522.
For assay [11], the system named is NCI/ADR-RES.
For assay [12], the system named is SK-MEL-2.
Assay [13] concerns SK-MEL-5.
For assay [14], the system named is SNB-19.
Assay [15] concerns SW-620.
Assay [16] relates to TK-10.
Assay [17] relates to U-251.
For assay [18], the system named is UACC-257.
In assay [19] the test system is OVCAR-3.
For assay [20], the system named is HCC 2998.

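Values below derive from 48-hour exposures of cells grown in 96-well plates, with endpoints linearly interpolated between the two concentrations bracketing the appropriate inhibition level. GI50: concentration for 50% inhibition of growth.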 Activity calls are given as the source filed them. Rule as the data show it: active = GI50 up to about 1.1 µM and inactive = higher. Bounds are passed on as bounds.

As for `C=CCCC1(O)C(O)C(CO)O[C@H](O[C@@]2(CO)OC(CO)C(O)C2O)C1O` (some centres undefined), the GI50 in assay [1], in [2], in [3], in [4], in assay [5] and in [6] was > 100 µM (inactive) each time. Also, the GI50 was > 100 µM (inactive) in assay [7]; > 100 µM (inactive) in assay [8]; > 100 µM (inactive) in [9]; > 100 µM (inactive) in assay [10]; > 100 µM (inactive) in [11]; > 10 µM (inactive) in [12]. For the same molecule, the GI50 in assay [13], in assay [14], in [15], in assay [16], in [17] and in assay [18] was > 100 µM (inactive) throughout.
Regarding `Oc1cn(-c2ccc(Cl)cc2)nc1-c1nnc(-c2ccccc2)o1`, the GI50 in assay [4] was 0.0769 µM (active); in assay [5] it was 18.8 µM (inactive); in assay [6], 0.122 µM (active); in assay [7], 0.193 µM (active); in assay [8], 8.34 µM (inactive); in [9], 0.155 µM (active). Besides, the GI50 is 1.1 µM (active) in assay [10]; 0.215 µM (active) in [11]; 0.404 µM (active) in [19]; 16.9 µM (inactive) in [12]; 0.268 µM (active) in [13]; 3.03 µM (inactive) in assay [14]. The GI50 is 1.94 µM (inactive) in assay [15], 0.17 µM (active) in [16], 0.2 µM (active) in [17] and 1.63 µM (inactive) in [18].
Turning to `COc1ccc(C(=O)C(C(=O)C(=O)NC2C3CC4CC(C3)CC2C4)c2ccc(OC)cc2)cc1` (centres undefined), the GI50 in [1], in assay [2], in assay [3], in [20], in [4] and in assay [5] was > 100 µM (inactive) in each case. The GI50 in [6], in assay [7], in assay [8], in assay [9], in [10] and in [19] was > 100 µM (inactive) each time. For the same molecule, the GI50 in assay [12], in assay [13], in assay [14], in assay [15], in [16] and in assay [17] was > 100 µM (inactive) in each case. Moreover, in assay [18], the GI50 was > 100 µM (inactive).
In the case of `CC12CC3CC(C1)CC(N=[N+]=[N-])(C3)C2`, the GI50 in assay [1], in [2], in [3], in assay [20], in assay [4] and in [5] was > 100 µM (inactive) throughout. Further, the GI50 in assay [6], in assay [7], in assay [8], in assay [9], in assay [10] and in assay [19] was > 100 µM (inactive) throughout. For the same molecule, the GI50 in assay [12], in assay [13], in [14], in assay [15], in [16] and in assay [17] was > 100 µM (inactive) throughout. Also, the GI50 in assay [18] is > 100 µM (inactive).
Turning to `Clc1ccccc1C(n1ncc2ccccc21)n1ncc2ccccc21`, the GI50 in assay [1] was 65.9 µM (inactive); in assay [2], 56.5 µM (inactive); in [3], 28.5 µM (inactive); in assay [20], 31.5 µM (inactive); in [4], 25.6 µM (inactive); in [5], 24.3 µM (inactive). Further, the GI50 in [6] was 28.4 µM (inactive); in assay [7], 18.9 µM (inactive); in assay [8], 33.9 µM (inactive); in [9] it was 24 µM (inactive); in assay [10] it was 15.1 µM (inactive); in assay [19], 80.4 µM (inactive). The GI50 in assay [12] is 33.3 µM (inactive); in assay [13] it was 30.4 µM (inactive); in [14], 57.5 µM (inactive); in assay [15] it was 29.7 µM (inactive); in assay [16], 99.8 µM (inactive); in assay [17] it was 35.8 µM (inactive). In addition, in assay [18], the GI50 was 40.8 µM (inactive).
On to `CCOC(=O)C1S/C(=N\c2ccc(Cl)cc2Cl)N=C1C` (centres undefined), for which the GI50 in assay [1] was 53.3 µM (inactive); in assay [2] it was 95.1 µM (inactive); in [20], > 100 µM (inactive); in assay [4], 65.6 µM (inactive); in assay [5], 20.6 µM (inactive); in assay [6] it was > 100 µM (inactive). Further, the GI50 was 76.7 µM (inactive) in assay [8]; 39.4 µM (inactive) in [9]; 35.9 µM (inactive) in assay [10]; 96.6 µM (inactive) in [19]; 61.5 µM (inactive) in assay [12]; 48.6 µM (inactive) in [13]. Also, the GI50 in assay [14] is 47.5 µM (inactive); in [15], > 100 µM (inactive); in [16], > 100 µM (inactive); in assay [17] it was 58.1 µM (inactive); in [18], 88.3 µM (inactive).
On to `O=S(=O)(O)c1ccc2c(/N=N/c3cccc4ccccc34)c(O)c(S(=O)(=O)O)cc2c1`, for which the GI50 in assay [1], in assay [2], in [3], in [4], in assay [5] and in assay [6] was > 100 µM (inactive) each time. Moreover, the GI50 in assay [7], in [8], in [9], in assay [10], in assay [11] and in assay [19] was > 100 µM (inactive) in each case. Further, the GI50 in assay [12], in [13], in [14], in assay [15], in assay [16] and in [17] was > 100 µM (inactive) in each case. For the same molecule, the GI50 in [18] was > 100 µM (inactive).
`COc1cc(-c2cc(O)c3cc4c(cc3n2)OCO4)cc(OC)c1OC`: the GI50 in assay [1] was > 100 µM (inactive); in assay [2], 34.7 µM (inactive); in assay [3] it was > 100 µM (inactive); in assay [20], > 100 µM (inactive); in [5], 20.7 µM (inactive); in assay [6], > 100 µM (inactive). Further, the GI50 in assay [7] is > 100 µM (inactive); in assay [8], > 100 µM (inactive); in assay [9], 56.2 µM (inactive); in assay [10], 62.7 µM (inactive); in [12] it was 92.7 µM (inactive); in assay [13] it was > 100 µM (inactive). Further, the GI50 in assay [14] was 40.3 µM (inactive); in assay [15], > 100 µM (inactive); in [16] it was > 100 µM (inactive); in assay [17], 60 µM (inactive).
On to `O=C1C(=C2CCCC2)CCC1CN1CCCCC1` (centres undefined), for which the GI50 in [1] was 13.6 µM (inactive); in assay [3], 14.3 µM (inactive); in assay [20], 16.3 µM (inactive); in [4], 18.6 µM (inactive); in assay [5], 19.5 µM (inactive); in [6], 16.3 µM (inactive). For the same molecule, the GI50 was 18.5 µM (inactive) in assay [7]; 16.3 µM (inactive) in assay [8]; 18.7 µM (inactive) in assay [9]; 1.77 µM (inactive) in [10]; 16.9 µM (inactive) in assay [19]; 16.5 µM (inactive) in [12]. In addition, the GI50 in assay [13] was 18.2 µM (inactive); in assay [14] it was > 100 µM (inactive); in [15], 16.4 µM (inactive); in [16], 14.1 µM (inactive); in assay [17] it was > 100 µM (inactive); in assay [18], 19.4 µM (inactive).
In the case of `O=C(CCc1ccccc1)CC1OC(=O)C(Cl)=C1Cl` (centres undefined), the GI50 in assay [1] is 19.1 µM (inactive); in [2] it was 20.5 µM (inactive); in assay [3], 29.6 µM (inactive); in assay [20], 18.6 µM (inactive); in assay [4] it was 14.8 µM (inactive); in [5] it was 23.9 µM (inactive). Also, the GI50 in [6] is 35 µM (inactive); in assay [7] it was 33 µM (inactive); in [8] it was 18.2 µM (inactive); in assay [9], 19.1 µM (inactive); in [10], 14.5 µM (inactive); in assay [19], 20.3 µM (inactive). The GI50 in assay [12] is 19.1 µM (inactive); in assay [13], 20.8 µM (inactive); in [14] it was 20.9 µM (inactive); in [15], 12.1 µM (inactive); in assay [16] it was 33.4 µM (inactive); in [17] it was 16.4 µM (inactive). The GI50 in assay [18] was 21.3 µM (inactive).
In the case of `COC(=O)c1sc(=O)n(-c2ccccc2)c1SCc1ccccc1`, the GI50 in assay [1] is > 100 µM (inactive); in assay [2] it was > 100 µM (inactive); in [3], > 100 µM (inactive); in assay [20], > 100 µM (inactive); in assay [4] it was > 100 µM (inactive); in [5], 30.1 µM (inactive). Moreover, the GI50 in assay [6], in [7], in [8], in [9], in assay [10] and in assay [19] was > 100 µM (inactive) throughout. The GI50 in assay [12], in [13], in [14], in assay [15], in assay [16] and in [17] was > 100 µM (inactive) each time. Besides, the GI50 in assay [18] was > 100 µM (inactive).
